{
  "source": "patent US20120308548A1",
  "about": "(NOVA SOUTHEASTERN UNIVERSITY, priority 2010, published 2012)",
  "key": {"MEGL/2ABD": {"biological_target": "T1, MEGL/2ABD (Porphyromonas gingivalis, UniProt Q7MX71)", "T1 construct": "hexa-His tag with TEV protease site (N, cleaved yes); made in house; host or cells: E. coli BL21 (DE3)", "T1 sequence (Q7MX71 7-399)": "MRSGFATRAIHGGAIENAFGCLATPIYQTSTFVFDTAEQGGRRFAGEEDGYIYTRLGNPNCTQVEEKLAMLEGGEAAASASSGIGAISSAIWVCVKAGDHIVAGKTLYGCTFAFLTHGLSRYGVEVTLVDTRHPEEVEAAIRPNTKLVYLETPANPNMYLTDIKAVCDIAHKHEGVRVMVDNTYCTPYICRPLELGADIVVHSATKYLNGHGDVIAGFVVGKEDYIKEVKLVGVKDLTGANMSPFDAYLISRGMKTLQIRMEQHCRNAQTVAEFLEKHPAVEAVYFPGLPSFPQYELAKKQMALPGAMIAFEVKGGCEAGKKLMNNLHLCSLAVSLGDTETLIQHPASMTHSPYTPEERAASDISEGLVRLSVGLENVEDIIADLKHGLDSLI", "type": "biochemical", "details": "isotope assay, FIG. 13E", "procedure": "Typically the overall reaction of α-ketobutyrate formation was performed in a total volume of 24 μl. The reaction contained 4 μl of reaction buffer [150 mM Tris-HCl (pH 8.0)], 4 μl of 1 mM pyridoxal phosphate (PLP), 3 μl of H2O, 6 μl of storage buffer, and 4 μl of diluted protein (0.4 μg), gently mixed and incubated at 37° C. for 5 minutes. The reaction was started by adding 1.93×10^5 cpm of 1-^14C-L-methionine (8814 cpm/nmol) and the contents were incubated at 37° C. for 15 minutes. The reaction was stopped by boiling for a minute, cooled on ice for 2 minutes and centrifuged at 3575 g for 7 minutes. A 2 μl aliquot was then chromatographed on a silica gel plate using 25% 20 mM phosphate buffer (pH 7.0) and 75% acetonitrile. Following chromatography, the TLC plates were dried, and exposed to x-ray film for 36-48 hours (Eastman-Kodak Co). The respective spots of substrate and products were cut out and radioactivity determined by liquid scintillation. […]"}, "MEGL": {"biological_target": "T2, MEGL (Porphyromonas gingivalis, UniProt Q7MX71)", "T2 construct": "His tag (N, cleaved yes); made in house", "T2 sequence (Q7MX71 7-399)": "as above", "type": "biochemical", "procedure": "This assay uses C^14-labeled methionine and recombinant, purified, HIS-TAG cleaved and further purified MEGL protein. The MEGL enzyme forms very specific radiolabeled nonvolatile C^14-labeled α-ketobutyrate. Further the products are separated by a silica gel-G thin layer chromatography (TLC) method using 75% acetonitrile and 25% 20 mM phosphate buffer (pH 7.0) solvent system.\nFurther characterization of the enzyme was made using these protocols."}, "HeLa cells": {"tested_on": "HeLa cells", "assay": "Transfection with MEGL/2ABD construct, confocal microscopy (GFP, DAPI), HeLa", "type": "cell-based", "details": "for rescue of MEGL/2ABD-transfected HeLa cells from death: propargylglycine in culture medium (10 μM, 2 hours after transfection)", "description": "(§1) The recombinant vector pMEGL-ET containing MEGL insert and pEGFP-C3 mammalian expression vector (Promega, Inc.) were digested with EcoR I and Bgl II restriction enzymes. The digested products were separated on 1% agarose to verify digestion and the MEGL insert was ligated into pEGFP-C3 vector. The ligated vector was then transformed into DH5α bacteria and the recombinant colonies were selected by kanamycin resistance. The plasmid from the recombinant colonies, were further tested for the insert by PCR using MEGL/2ABD specific primers. The recombinant bacteria, was then grown in bulk, plasmid isolated by maxi/mini preps using columns (Qiagen, Inc.). Purified plasmid was then used for mammalian transfection. HeLa, HEK-AD293T and BHK-21 cells (ATCC, Rockville, Md.) were grown in 75-cm^2 flasks in Dulbecco's modified Eagle's medium, supplemented with 10% fetal bovine serum 100 units/ml penicillin and 100 μg/ml streptomycin (Invitrogen Inc), in an atmosphere of 5% CO2, 95% air at 37° C. For confocal microscopy, cells were plated on cover slips in 35 mm^2 dishes. When cells reached 50-75% confluency they were placed in serum and antibiotic-free medium and co-transfected with plasmid DNA containing GFP and with or without MEGL/2ABD insert. […] Transfections of HEK-AD293T cells were performed using standard calcium phosphate methods. After incubation of cells for 4-18 hours, cells were washed with phosphate-buffered saline, fixed with 4% formaldehyde for 8 minutes, permeabilized using 0.2% Triton X-100 (Sigma-Aldrich) and mounted on glass slides using the ProLong Antifade Kit (Molecular Probes) for staining with DAPI using standard protocols. Samples were examined on a Zeiss LSM510 confocal microscope.\n(§2) After 18 hour incubations cells were washed with phosphate-buffered saline, fixed, permeabilized and mounted on glass slides using the ProLong Antifade Kit (Molecular Probes) with DAPI staining as previously described by Enniga et al. 2006. Samples were examined on a Zeiss LSM510 confocal microscope."}, "HEK-AD293T cells [1]": {"tested_on": "HEK-AD293T cells", "assay": "Transfection with MEGL/2ABD construct, confocal microscopy, HEK-AD293T", "type": "cell-based", "details": "for effect of expressed MEGL/2ABD on HEK-AD293T cells: cell aggregation: 18 hours after transfection", "description": "as §1, §2"}, "BHK-21 cells [2]": {"tested_on": "BHK-21 cells", "assay": "Transfection with MEGL/2ABD construct, confocal microscopy, BHK-21", "type": "cell-based", "details": "for effect of expressed MEGL/2ABD on BHK-21 cells: cell aggregation: 18 hours after transfection", "description": "as §1, §2"}, "[3]": {"procedure": "Typically the overall reaction of α-ketobutyrate formation was performed in a total volume of 24 μl. The reaction contained 4 μl of reaction buffer [150 mM Tris-HCl (pH 8.0)], 4 μl of 1 mM pyridoxal phosphate (PLP), 3 μl of H2O, 6 μl of storage buffer, and 4 μl of diluted protein (0.4 μg), gently mixed and incubated at 37° C. for 5 minutes. The reaction was started by adding 1.93×10^5 cpm of 1-^14C-L-methionine (8814 cpm/nmol) and the contents were incubated at 37° C. for 15 minutes. The reaction was stopped by boiling for a minute, cooled on ice for 2 minutes and centrifuged at 3575 g for 7 minutes. A 2 μl aliquot was then chromatographed on a silica gel plate using 25% 20 mM phosphate buffer (pH 7.0) and 75% acetonitrile. Following chromatography, the TLC plates were dried, and exposed to x-ray film for 36-48 hours (Eastman-Kodak Co). The respective spots of substrate and products were cut out and radioactivity determined by liquid scintillation.\nThe activity was measured using different amounts of protein ranging from 0.1 to 1 μg and the reaction was performed for 5-30 minutes.\nReaction at each protein concentration was performed for 15 minutes at pH 8.0 according to the standard assay procedures described. Effect of time was tested using 0.4 μg of protein. […]"}, "BHK-21 cells [4]": {"tested_on": "BHK-21 cells", "details": "BHK-21, 18 hours after transfection", "procedure": "(§3) The effect of MEGL on cell viability was determined using 3-[4,5-dimethylthiazol-2-yl]-2,5-diphenyl-tetrazolium bromide (MTT, Sigma-Aldrich). For MTT assay, cells were suspended at a concentration of ˜4×10^4 cells (180 μl/well). 20 μl of MTT solution (5 mg/ml) was added for each well and incubate at 37° C. and 5% CO2 for about 2-5 hours for purple color development. Formazan precipitates were dissolved in DMSO for 30 minutes at 37° C., and the absorbance was measured at 570 nm.\n(§4) Viability of cells transfected with MEGL construct. Three different cell lines (Hela, BHK-21, and HEK-AD293T) were plated in 96-well plates and transfected with either vector expressing green fluorescent protein, GFP (pEGFP-C3), or MEGL and GFP (pEGFP-C3-MEGL). After 18 hours of transfection, cells were treated with MTT and viability was determined by measuring the MTT absorbance at λ570 nm. Control absorbance was arbitrarily determined as 100% viability."}, "HEK-AD293T cells [5]": {"tested_on": "HEK-AD293T cells", "details": "18 hours after transfection", "procedure": "as §3, §4"}, "[6]": {"details": "propargylglycine in culture medium (10 μM, 2 hours after transfection)"}},
  "note": "Values joined by “and” are separate entries in the source; they are usually repeats but may differ in a detail not shown here. Equal entries are not always repeated. “Also recorded” adds a separate entry of the source. Where two headings read alike, the source gives them in different places.",
  "data": [
    {"compound": "CSCC[C@@H](N)C(=O)O", "note": "[D-methionine]", "values": [
      {"measurement": "relative MEGL/2ABD activity (L-methionine) in the presence of competing compound", "setting": "MEGL/2ABD", "value": 43.6, "unit": "%"}
    ]},
    {"compound": "N[C@@H](CCSC[C@H](N)C(=O)O)C(=O)O", "note": "[L-cystathionine]", "values": [
      {"measurement": "relative MEGL/2ABD activity (L-methionine) in the presence of competing compound", "setting": "MEGL/2ABD", "value": 54.6, "unit": "%"}
    ]},
    {"compound": "N[C@@H](CS)C(=O)O", "note": "[L-cysteine]", "values": [
      {"measurement": "relative MEGL/2ABD activity (L-methionine) in the presence of competing compound", "setting": "MEGL/2ABD", "value": "24.5% and 25.5%"}
    ]},
    {"compound": "N[C@@H](CCOC(=O)CCC(=O)O)C(=O)O", "note": "[o-succinyl-homoserine, O-succinyl L-homoserine]", "values": [
      {"measurement": "relative MEGL/2ABD activity (L-methionine) in the presence of competing compound", "setting": "MEGL/2ABD", "value": 45.6, "unit": "%"}
    ]},
    {"compound": "C#CCC(N)C(=O)O", "note": "(centres unmarked) [propargylglycine, reference compound]", "values": [
      {"measurement": "relative MEGL/2ABD activity (L-methionine) in the presence of competing compound", "setting": "MEGL/2ABD", "value": 0.26, "unit": "%"},
      {"measurement": "effect of suicide inhibitor on MEGL activity", "setting": "MEGL", "value": "completely knocked out the MEGL activity"},
      {"measurement": "rescue of MEGL/2ABD-transfected HeLa cells from death", "setting": "HeLa cells", "value": "restores cells from death; also recorded: restored viability"},
      {"measurement": "rescue of MEGL/2ABD-transfected HeLa cells from death", "setting": "HeLa cells; listed as Propargylglycine", "value": "restored cells from death"},
      {"measurement": "rescue of MEGL/2ABD-transfected HeLa cells from death", "setting": "HeLa cells; listed as propargyl glycine", "value": "restored nearly all cells from death"},
      {"measurement": "effect on cell aggregation of MEGL/2ABD-transfected HEK-AD293T cells", "setting": "HEK-AD293T cells [1]; [6]", "value": "inhibited MEGL/2ABD mediated cell aggregation; also recorded: prevented cell aggregation; also recorded: inhibited the cell aggregation"},
      {"measurement": "effect on cell aggregation of MEGL/2ABD-transfected BHK-21 cells", "setting": "BHK-21 cells [2]; [6]", "value": "inhibited MEGL/2ABD mediated cell aggregation; also recorded: prevented cell aggregation; also recorded: inhibited the cell aggregation"}
    ]},
    {"compound": "C[Se]CC[C@H](N)C(=O)O", "note": "[selenomethionine]", "values": [
      {"measurement": "relative MEGL/2ABD activity (L-methionine) in the presence of competing compound", "setting": "MEGL/2ABD", "value": 33.15, "unit": "%"},
      {"measurement": "relative MEGL/2ABD activity (L-methionine) in the presence of competing compound", "setting": "MEGL/2ABD; listed as seleno-methionine", "value": 33.2, "unit": "%"}
    ]},
    {"compound": "C[S+]([O-])CC[C@H](N)C(=O)O", "note": "(some centres unmarked) [sulfoxymethionine, methionine-sulfoxide]", "values": [
      {"measurement": "relative MEGL/2ABD activity (L-methionine) in the presence of competing compound", "setting": "MEGL/2ABD", "value": 46.71, "unit": "%"},
      {"measurement": "relative MEGL/2ABD activity (L-methionine) in the presence of competing compound", "setting": "MEGL/2ABD; listed as methionine-sulfoxide", "value": 46.7, "unit": "%"}
    ]},
    {"compound": "methionine gamma lyase-2-aminobutyrate deaminase [MEGL-2ABD]", "values": [
      {"measurement": "overall α-ketobutyrate formation at temperatures 72-93° C.", "setting": "[3]; 72-93° C.", "value": "very minimal"},
      {"measurement": "temperature range of optimal activity", "setting": "[3]; 15 minutes, pH 8.0, 0.4 μg protein", "value": "37-55 °C"},
      {"measurement": "optimal temperature", "setting": "MEGL", "value": "37-55 °C"},
      {"measurement": "pH optimum", "setting": "MEGL", "value": 8.0},
      {"measurement": "Vmax", "setting": "MEGL; oral pathology section", "value": 0.57, "unit": "μmol/min/mg protein"},
      {"measurement": "effect of expressed MEGL/2ABD on HeLa cells", "setting": "HeLa cells; 18 hours after transfection, listed as MEGL/2ABD", "value": "causes cell death; also recorded: significant cell death; also recorded: significant apoptosis"},
      {"measurement": "HeLa cell death", "setting": "HeLa cells; within 18 hours of transfection, judged by confocal images", "value": 30, "unit": "%"},
      {"measurement": "effect of expressed MEGL/2ABD on HEK-AD293T cells: cell aggregation", "setting": "HEK-AD293T cells [1]", "value": "severe cell aggregation"},
      {"measurement": "effect of expressed MEGL/2ABD on HEK-AD293T cells: cell aggregation", "setting": "HEK-AD293T cells [1]; listed as MEGL", "value": "very prominent cell aggregation"},
      {"measurement": "effect of expressed MEGL/2ABD on HEK-AD293T cells: cell aggregation", "setting": "HEK-AD293T cells [1]; listed as MEGL/2ABD", "value": "severe cell aggregation; also recorded: significant cell aggregation"},
      {"measurement": "effect of expressed MEGL/2ABD on BHK-21 cells: cell aggregation", "setting": "BHK-21 cells [2]", "value": "severe cell aggregation"},
      {"measurement": "effect of expressed MEGL/2ABD on BHK-21 cells: cell aggregation", "setting": "BHK-21 cells [2]; listed as MEGL", "value": "very prominent cell aggregation"},
      {"measurement": "effect of expressed MEGL/2ABD on BHK-21 cells: cell aggregation", "setting": "BHK-21 cells [2]; listed as MEGL/2ABD", "value": "severe cell aggregation; also recorded: significant cell aggregation"},
      {"measurement": "cell death (words)", "setting": "BHK-21 cells [4]; listed as MEGL", "value": "no significant cell death"},
      {"measurement": "cell death (words)", "setting": "BHK-21 cells [4]; listed as MEGL/2ABD", "value": "no cell death"},
      {"measurement": "cell death (words)", "setting": "HEK-AD293T cells [5]; listed as MEGL", "value": "no significant cell death"},
      {"measurement": "cell death (words)", "setting": "HEK-AD293T cells [5]; listed as MEGL/2ABD", "value": "no cell death"}
    ]}
  ]
}
